Results published in ChEMBL document CHEMBL1121775, “Synthesis and antimalarial effects of N2-aryl-N4-[(dialkylamino)alkyl]- and N4-aryl-N2-[(dialkylamino)alkyl]-2,4-quinazolinediamines” (J Med Chem, 1981).
Values joined by “and” are separate entries in the source; they are usually repeats but may differ in a detail not shown here. Identical values can stand only once.

Columns and labels:
Plasmodium berghei [1] = assay: Antimalarial activity against trophozoite-induced Plasmodium berghei in mice (Mus musculus); assay type: functional
Plasmodium berghei [2] = assay: Antimalarial effect against trophozoite-induced Plasmodium berghei in mice (Mus musculus) after 20 mg/kg subcutaneous dose; assay type: functional
Plasmodium berghei [3] = assay: Antimalarial effect against trophozoite-induced Plasmodium berghei in mice (Mus musculus) at 160 mg/kg subcutaneous dose; assay type: functional
[4] = The ratio of SD90 of the quinine hydrochloride, to the SD90 of the test substance for the Dose of 46 mg/kg; assay type: functional
Plasmodium berghei [5] = assay: Antimalarial effect against trophozoite-induced Plasmodium berghei in mice (Mus musculus) after 40 mg/kg subcutaneous dose; assay type: functional
[6] = The ratio of SD90 of the quinine hydrochloride, to the SD90 of the test substance for the Dose of 16 mg/kg; assay type: functional
Plasmodium berghei [7] = assay: (§1) Antimalarial effect against trophozoite-induced Plasmodium berghei in mice (Mus musculus) at 640 mg/kg subcutaneous dose; assay type: functional
Mus musculus [8] = assay: Number of mice cured at a dose of 320 mg/kg sc; assay type: functional; details: route subcutaneous
Mus musculus [9] = assay: Number of mice cured at a subcutaneous dose of 640 mg/kg.; assay type: functional
Plasmodium berghei [10] = assay: Antimalarial effect against trophozoite-induced Plasmodium berghei in mice (Mus musculus) at 80 mg/kg subcutaneous dose; assay type: functional
Plasmodium berghei [11] = assay: Antimalarial effect against trophozoite-induced Plasmodium berghei in mice (Mus musculus) at 320 mg/kg subcutaneous dose; assay type: functional
Mus musculus [12] = assay: Number of mice cured at a subcutaneous dose of 320 mg/kg.; assay type: functional
Mus musculus [13] = assay: Antimalarial effect against trophozoite-induced Plasmodium berghei in mice (Mus musculus) at dosage of 640 mg/kg after subcutaneous administration; No. of mice (Mus musculus) surviving after 60 days 4; assay type: functional
Mus musculus [14] = assay: Number of mice cured at a dose of 640 mg/kg sc; assay type: functional; details: route subcutaneous
Mus musculus [15] = assay: Number of mice cured at a subcutaneous dose of 160 mg/kg.; assay type: functional
Plasmodium berghei [16] = assay: Antimalarial activity against trophozoite-induced Plasmodium berghei in mice (Mus musculus) at 160 mg/kg subcutaneous dose; assay type: functional
Mus musculus [17] = assay: Antimalarial effect against trophozoite-induced Plasmodium berghei in mice (Mus musculus) at dosage of 320 mg/kg after subcutaneous administration; No. of mice (Mus musculus) surviving after 60 days 2; assay type: functional
Mus musculus [18] = assay: Antimalarial effect against trophozoite induced Plasmodium berghei in mice (Mus musculus) at dosage of 160 mg/kg after subcutaneous administration; No. of mice (Mus musculus) surviving after 60 days 1; assay type: functional
[19] = The ratio of SD90 of the quinine hydrochloride, to the SD90 of the test substance for the Dose of 97 mg/kg/day; assay type: functional
Plasmodium berghei [20] = assay: as §1; assay type: functional; remark: listed apart in the source
Mus musculus [21] = assay: Number of toxic deaths at a dose of 160 mg/kg; assay type: functional
Mus musculus [22] = assay: Number of toxic deaths at a dose of 640 mg/kg; assay type: toxicity, organism-based; parameters: dose 640 mg/kg; details: in vivo
[23] = The ratio of SD90 of the quinine hydrochloride, to the SD90 of the test substance for the Dose of 70 mg/kg; assay type: functional
[24] = The ratio of SD90 of the quinine hydrochloride, to the SD90 of the test substance for the Dose of 69 mg/kg; assay type: functional
[25] = The ratio of SD90 of the quinine hydrochloride, to the SD90 of the test substance for the Dose of […] mg/kg; assay type: functional
Mus musculus [26] = assay: Antimalarial effect against trophozoite-induced Plasmodium berghei in mice (Mus musculus) at dosage of 20 mg/kg after subcutaneous administration.; assay type: functional
[27] = The ratio of SD90 of the quinine hydrochloride, to the SD90 of the test substance for the Dose of 22 mg/kg; assay type: functional
[28] = The ratio of SD90 of the quinine hydrochloride, to the SD90 of the test substance for the Dose of 18.5 mg/kg; assay type: functional
Mus musculus [29] = assay: Number of mice cured at a dose 160 mg/kg sc; assay type: functional; details: route subcutaneous
Mus musculus [30] = assay: Antimalarial effect against trophozoite-induced Plasmodium berghei in mice (Mus musculus) at dosage of 320 mg/kg after subcutaneous administration;; assay type: functional
Mus musculus [31] = assay: No of toxic deaths at dose of 640 mg/kg; assay type: ADME, organism-based; parameters: dose 640 mg/kg; details: in vivo
[32] = The ratio of SD90 of the quinine hydrochloride, to the SD90 of the test substance for the Dose of 2.2 mg/kg; assay type: functional
[33] = The ratio of SD90 of the quinine hydrochloride, to the SD90 of the test substance for the Dose of 20 mg/kg; assay type: functional
Mus musculus [34] = assay: Antimalarial effect against trophozoite-induced Plasmodium berghei in mice (Mus musculus) at dosage of 160 mg/kg after subcutaneous administration; No. of mice (Mus musculus) surviving after 60 days 3; assay type: functional
[35] = The ratio of SD90 of the quinine hydrochloride, to the SD90 of the test substance for the Dose of 8.5 mg/kg; assay type: functional
Mus musculus [36] = assay: Antimalarial effect against trophozoite-induced Plasmodium berghei in mice (Mus musculus) at dosage of 320 mg/kg after subcutaneous administration; No. of mice (Mus musculus) surviving after 60 days 4; assay type: functional
[37] = The ratio of SD90 of the quinine hydrochloride, to the SD90 of the test substance for the Dose of 74.5 mg/kg; assay type: functional

Compound | SD90 (Plasmodium berghei [1]) [mg/kg/day] | MST (Plasmodium berghei [2]) [days] | MST (Plasmodium berghei [3]) [days] | MST (Plasmodium berghei [5]) [days] | MST (Plasmodium berghei [10]) [days] | MST (Plasmodium berghei [11]) [days] | No. of survivals (Mus musculus [12]) | MST (Plasmodium berghei [5]; 40 mg/kg) | MST (Plasmodium berghei [3]; 160 mg/kg) | also measured
CCN1CCCC(Nc2nc(Nc3ccc(Cl)c(Cl)c3)nc3ccc(Cl)cc23)C1 (stereo not drawn) | 46 | 0.1 | 0.3 | 0.1 |  |  |  |  |  | Ratio [4]: 1.6
CN1CCCC1CCNc1nc(Nc2ccc(C(F)(F)F)cc2)nc2ccccc12 (stereo not drawn) | 16 | 1 | 10.5 | 1.2 | 3.2 | 15.5 |  |  |  | Ratio [6]: 4.7; MST (Plasmodium berghei [7]): 25.8 days; No. of cured (Mus musculus [8]): 2; No. of cured (Mus musculus [9]): 4
CCN(CC)C1CCC(Nc2nc(Nc3ccc(Cl)c(Cl)c3)nc3ccc(Cl)cc23)CC1 (stereo not drawn) |  | 1.3 |  |  | 14.9 |  | 2 | 13.3 days and 12.9 days |  | MST (Mus musculus [13]): 12.9 days; No. of survivals (Mus musculus [14]; 640 mg/kg): 4 and 3; No. of survivals (Mus musculus [15]): 1; MST (Plasmodium berghei [7]): 18.4 days; MST (Plasmodium berghei [16]): 12.9 days; MST (Mus musculus [17]): 27.2 days; MST (Mus musculus [18]): 13.9 days
Clc1cccc(Nc2nc(NCCN3CCCC3)c3ccccc3n2)c1 | 97 | 0.4 |  |  | 1.4 | 4.2 |  | 0.6 days and 0.7 days | 2.8 days and 3.5 days | Ratio [19]: 0.8; MST (Plasmodium berghei [20]; 640 mg/kg): 10.2 days and 11.1 days
CCN(CC)CCNc1nc(NCc2ccc(Cl)c(Cl)c2)nc2ccccc12 |  |  |  | 0.7 |  |  |  |  |  | No. of toxic deaths (Mus musculus [21]): 1; No. of toxic deaths (Mus musculus [22]): 5; MST (Plasmodium berghei [16]): 0.9 days
Clc1ccc(Nc2nc(NCCN3CCCC3)c3ccccc3n2)cc1Cl | 70 | 0.3 |  |  | 3.1 | 9.3 |  | 2.1 days and 2.3 days | 6.5 days and 7.1 days | Ratio [23]: 1.1; MST (Plasmodium berghei [20]; 640 mg/kg): 15.9 days and 13.7 days
CCN(CC)CCNc1nc(Nc2ccc(Cl)c(Cl)c2)nc2ccc(NCc3ccc(Cl)c(Cl)c3)cc12 | 69 | 0.2 | 3.8 |  | 0.4 | 5.6 |  | 0.2 days and 0.4 days |  | Ratio [24]: 1.1
CCN(CC)C1CCC(Nc2nc(Nc3cc(Br)cc(Br)c3)nc3ccccc23)CC1 (stereo not drawn) | 3.3 | 0.3 |  |  | 4.3 | 26.2 |  | 1.1 days and 0.7 days | 8.7 days and 9.1 days | No. of cured (Mus musculus [8]): 2; No. of cured (Mus musculus [9]): 5; Ratio [25]: 2.3
FC(F)(F)c1ccc(Nc2nc(NCCCN3CCCC3)c3cc(Cl)ccc3n2)cc1 | 22 | 0.2 |  | 0.4 | 1.6 | 14.6 | 1 |  | 4.6 days and 4 days | MST (Mus musculus [26]): 0.4 days; Ratio [27]: 3.4; No. of survivals (Mus musculus [14]; 640 mg/kg): 2 and 3; MST (Plasmodium berghei [7]; 640 mg/kg): 26.5 days and 23.3 days
CN1CCCC1CCNc1nc(Nc2ccc(Cl)c(Cl)c2)nc2ccc(Cl)cc12 (stereo not drawn) | 18.5 | 0.5 |  |  | 2.7 | 14.2 | 2 | 1.1 days and 0.5 days | 6.1 days and 2.5 days | Ratio [28]: 4; MST (Plasmodium berghei [20]): 13.6 days
CCN(CC)C1CCC(Nc2nc(Nc3ccc(I)cc3)c3ccccc3n2)CC1 (stereo not drawn) |  | 0.3 | 14.4 | 0.5 |  | 9.9 | 2 |  |  | No. of survivals (Mus musculus [14]; 640 mg/kg): 3 and 2; No. of survivals (Mus musculus [29]): 2; MST (Mus musculus [30]): 9.4 days; MST (Plasmodium berghei [16]): 8.6 days; MST (Plasmodium berghei [10]; 80 mg/kg): 0.7 days and 0.5 days
CC1(C)N=C(N)N=C(N)N1c1ccc(Cl)cc1 [CYCLOGUANIL] |  |  |  | 13.4 |  |  |  |  |  | No. of toxic deaths (Mus musculus [31]): 5; MST (Plasmodium berghei [2]; 20 mg/kg): 7.9 days and 8.1 days; No. of toxic deaths (Mus musculus [22]): 5; MST (Plasmodium berghei [10]; 80 mg/kg): 21.6 days and 21.9 days
CCN1CCCC(Nc2nc(Nc3ccc(Cl)c(Cl)c3)nc3ccccc23)C1 (stereo not drawn) | 2.2 | 0.4 |  |  | 1 | 13.8 |  | 0.6 days and 0.5 days | 6.2 days and 7.3 days | Ratio [32]: 34; MST (Plasmodium berghei [7]; 640 mg/kg): 13.8 days and 24.2 days; No. of cured (Mus musculus [9]; 640 mg/kg): 3 and 2
CN1CCCC1CCNc1nc(Nc2cc(Cl)cc(Cl)c2)nc2ccc(Cl)cc12 (stereo not drawn) | 20 | 0.6 |  |  | 5 | 21.1 | 1 | 3.6 days and 4 days |  | No. of survivals (Mus musculus [14]): 5; No. of survivals (Mus musculus [15]): 1; MST (Plasmodium berghei [16]; 160 mg/kg): 11.1 days and 10.3 days; Ratio [33]: 3.8
CN(C)C1CCC(Nc2nc(Nc3ccc(Cl)c(Cl)c3)nc3ccccc23)CC1 (stereo in doubt; 23) | 8.5 |  |  |  |  |  |  | 9.7 days and 9.9 days |  | MST (Mus musculus [34]): 25.4 days; MST (Plasmodium berghei [2]; 20 mg/kg): 0.9 days; No. of survivals (Mus musculus [14]): 5; No. of survivals (Mus musculus [15]; 160 mg/kg): 3; Ratio [35]: 8.8; MST (Mus musculus [36]): 25.9 days; MST (Plasmodium berghei [16]; 160 mg/kg): 27.4 days
C=C[C@H]1CN2CC[C@H]1C[C@H]2[C@H](O)c1ccnc2ccc(OC)cc12 [QUININE] | 74.5 | 0.2 | 2 | 1 | 1.4 | 3.2 |  |  |  | Ratio [37]: 1; MST (Plasmodium berghei [20]): 5.4 days
